Earlier results in patent US20040186131A1, “Method of preventing or treating atherosclerosis or restenosis” (priority 2002, published 2004).

System: CMV infection of rats
Conditions: DHPG prophylaxis

SMILES: Nc1nc(O)c2ncn(COC(CO)CO)c2n1 [Ganciclovir]
- prevention of atherosclerosis resulting from CMV infection: prevent atherosclerosis
